Reference: patent US20190077766A1, “Compositions For APP-Selective BACE Inhibition And Uses Therefor” (NantNeuro, LLC, priority 2015, published 2019)
Where “and” joins values, the source holds several entries; their conditions need not be identical. Equal values may be shown once. Where a name gives a salt, the structure may show the parent alone. Read-outs that look alike come from different tables or passages of the source.

Legend:
BACE1 = biological target: T1, BACE1 (Homo sapiens, UniProt P56817); test: in vitro BACE inhibition assay (Primary BACE1 IC50); format: biochemical
T1 construct: purchased R&D 931-AS-050
From the text: ABBI Assay: APP Binding BACE Inhibitor (ABBI) activity of any of the compounds described herein can readily be verified using, for example, assays described herein. Basically, in certain embodiments a pair the assays are utilized to identify ABBI compounds that inhibit BACE cleavage of the MBP-C125 APP substrate, resulting in the inhibition of the production of C99 and the β-site peptide substrate (P5-P5′) and also interacts with APP, for example, as measured by surface plasmon resonance (SPR) analysis. In one illustrative embodiment, an MBP-C125 APP695 wt fusion protein can be used as one of the substrates and the second substrate can be the commercially available P5-P5′ fluorescence substrate.

solubility (Sol) = format: physicochemical; conditions: Table 3; in words
[1] = pharmacokinetics, brain level (Cmax brain); format: in vivo
From the text: As is readily apparent, not all compounds were equally able to cross the blood brain barrier, but most compounds did reach pharmacologically meaningful levels given their low IC50 values. FIG. 5A provides a further exemplary compound (FAH65) and FIG. 5B depicts dose response data for Aβ1-42 production in a cell based system. Further shown are effects observed with regard to Aβ1-42 production, sAPPβ and sAPPα formation. […] Here, data are presented for oral and subcutaneous administration (SQ) at dosages of 10- and 30 mg/kg. […] Once more, it should be noted that these exemplary compounds are preferential towards APP in BACE inhibition as can be taken from the data for Aβ1-42, sAPPβ, and sAPPα formation.

[2] = system: CHO-7W cells that were stably transfected with human APP (wildtype); test: Secondary cell-based APP processing assay (sAPPalpha, sAPPbeta, Abeta 1-42); conditions: for Aβ1-42 peptide formation / production: cell based; for preference (selectivity) towards APP in BACE inhibition: from Aβ1-42, sAPPβ and sAPPα formation
From the text: Cellular Assays: Numerous cell-based assays can be used to evaluate the activity of agent(s) of interest on relative alpha-secretase activity to beta-secretase activity and/or processing of APP to release amyloidogenic versus non-amyloidogenic oligomers.
Human cell lines that normally process Aβ from APP provide a useful means to assay inhibitory activities of the agent(s). Production and release of Aβ and/or other cleavage products into the culture medium can be measured, for example by immunoassay, such as Western blot or enzyme-linked immunoassay (EIA) such as by ELISA.
Relative activity of the alpha-secretase to the beta-secretase can be measured by analysis of one or more cleavage products of the APP substrate. For example, inhibition of beta-secretase activity against the substrate APP would be expected to decrease release of specific beta-secretase induced APP cleavage products such as Aβ (e.g., Aβ40 or Aβ42), sAPPβ and APPneo. Promotion or enhancement of alpha-secretase activity against the substrate APP would be expected to increase release of specific alpha-secretase induced APP cleavage products such as sAPPα and p3 peptide.
In such assays, for example, the cells expressing APP, alpha-secretase and/or beta-secretase are incubated in a culture medium under conditions suitable for alpha-secretase and/or beta-secretase enzymatic activity at its cleavage site on the APP substrate. On exposure of the cells to the agent(s), the amount of Aβ released into the medium and/or the amount of CTF99 fragments of APP in the cell lysates is reduced as compared with the control. The cleavage products of APP can be analyzed, for example, by immune reactions with specific antibodies, as discussed above.

[3] = Tables 1 and 2, read-out: Primary BACE1 IC50
[4] = Table 4, several values in a cell = several determinations, read-out: BACE1 IC50
[5] = Table 2, one cell for the whole line

T1 sequence (P56817 46-457 limits assumed): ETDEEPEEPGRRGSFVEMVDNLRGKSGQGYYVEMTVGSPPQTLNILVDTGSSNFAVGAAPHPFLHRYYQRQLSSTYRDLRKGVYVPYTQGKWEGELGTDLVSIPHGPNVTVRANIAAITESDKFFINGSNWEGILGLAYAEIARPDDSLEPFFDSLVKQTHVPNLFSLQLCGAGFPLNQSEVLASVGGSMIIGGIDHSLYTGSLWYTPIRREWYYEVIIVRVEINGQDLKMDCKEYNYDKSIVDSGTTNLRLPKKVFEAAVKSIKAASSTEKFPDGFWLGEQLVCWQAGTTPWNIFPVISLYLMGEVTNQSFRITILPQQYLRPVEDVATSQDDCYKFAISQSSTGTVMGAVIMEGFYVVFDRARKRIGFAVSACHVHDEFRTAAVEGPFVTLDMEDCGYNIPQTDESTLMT

Cc1cc(C2(c3cnn(C)c3)N=C(N)N(C)C2=O)ccc1OC(F)F (stereo not drawn) [30 HCl]
IC50 (BACE1; [3]): 2000 nM

CN1C(=O)C(c2ccccc2)(c2cc(F)cc(F)c2)N=C1N (stereo not drawn) [FAH-01]
IC50 (BACE1; [4]): 2670 nM and 4700 nM

CN1C(=O)C(c2ccc(OC(F)F)cc2)(c2cc(F)cc(F)c2)N=C1N (stereo not drawn) [FAH-02]
IC50 (BACE1; [4]): 2130 nM and 9200 nM

CN1C(=O)C(c2cc(F)cc(F)c2)(c2cccc(OC(F)F)c2)N=C1N (stereo not drawn) [FAH-04]
IC50 (BACE1; [4]): 2230 nM and 3500 nM

Cc1cc(C)cc(C2(c3cc(F)cc(F)c3)N=C(N)N(C)C2=O)c1 (stereo not drawn) [FAH-05]
IC50 (BACE1; [4]): 6460 nM

COc1ccc(C2(c3cc(F)cc(F)c3)N=C(N)N(C)C2=O)cc1C (stereo not drawn) [FAH-06]
IC50 (BACE1; [4]): 600 nM and 4100 nM

COc1ccc(C2(c3ccc(F)cc3F)N=C(N)N(C)C2=O)cc1C (stereo not drawn) [FAH-08]
IC50 (BACE1; [4]): 2300 nM

COc1ccc(C2(c3cc(C)c(F)cc3F)N=C(N)N(C)C2=O)cc1C (stereo not drawn) [FAH-09]
IC50 (BACE1; [4]): 1400 nM

Cc1cc(C2(c3cc(F)cc(F)c3)N=C(N)N(C)C2=O)ccc1F (stereo not drawn) [FAH-10]
IC50 (BACE1; [4]): 1600 nM

COc1ccc(C2(c3cc(F)cc(F)c3)N=C(N)N(C)C2=O)cn1 (stereo not drawn) [FAH-11]
IC50 (BACE1; [4]): 1800 nM

COc1ccc(C2(c3cc(F)cc(F)c3)N=C(N)N(C)C2=O)cc1F (stereo not drawn) [FAH-12]
IC50 (BACE1; [4]): 2600 nM

CN1C(=O)C(c2cc(F)cc(F)c2)(c2ccc(F)c(F)c2)N=C1N (stereo not drawn) [FAH-14]
IC50 (BACE1; [4]): 1500 nM

CN1C(=O)C(c2cc(F)cc(F)c2)(c2ccnc(F)c2)N=C1N (stereo not drawn) [FAH-15]
IC50 (BACE1; [4]): 2000 nM

Cc1cc(C2(c3cccc(F)c3)N=C(N)N(C)C2=O)ccc1OC(F)F (stereo not drawn) [FAH-17]
Sol (solubility (Sol)): med | Cmax brain ([1]; 10 mg/kg 5Q): ~0.3 µM | IC50 (BACE1; Table 3, read-out: IC50): ~100 nM | IC50 (BACE1; [3]): 150 nM

Cc1cc(C2(c3cc(F)c(F)c(F)c3)N=C(N)N(C)C2=O)ccc1OC(F)F (stereo not drawn) [FAH-19]
IC50 (BACE1; [4]): 960 nM

Cc1cc(F)cc(C2(c3ccc(OC(F)F)c(C)c3)N=C(N)N(C)C2=O)c1 (stereo not drawn) [FAH-22]
sAPPbeta ([2]; Secondary (1st test, n = 3), ↓ = decrease): ↓>20%

Cc1cc(C2(c3cccc(Cl)c3)N=C(N)N(C)C2=O)ccc1OC(F)F (stereo not drawn) [FAH-23]
IC50 (BACE1; [4]): 320 nM | IC50 (BACE1; [3]): 320 nM

Cc1cc(C2(c3cc(F)cc(Cl)c3)N=C(N)N(C)C2=O)ccc1OC(F)F (stereo not drawn) [FAH-25]
IC50 (BACE1; [4]): 570 nM | IC50 (BACE1; [3]): 570 nM

Cc1cccc(C2(c3ccc(OC(F)F)c(C)c3)N=C(N)N(C)C2=O)c1 (stereo not drawn) [FAH-27]
IC50 (BACE1; [4]): 130 nM | IC50 (BACE1; [3]): 130 nM

Cc1cc(C2(c3cccc(C(F)(F)F)c3)N=C(N)N(C)C2=O)ccc1OC(F)F (stereo not drawn) [FAH-28]
IC50 (BACE1; [4]): 380 nM | IC50 (BACE1; [3]): 380 nM

Cc1cc(C2(c3cccc(C(C)C)c3)N=C(N)N(C)C2=O)ccc1OC(F)F (stereo not drawn) [FAH-29]
IC50 (BACE1; [4]): 11000 nM

Cc1cc(C2(c3cnn(C)c3)N=C(N)N(C)C2=O)ccc1OC(F)F (stereo not drawn) [FAH-30]
IC50 (BACE1; [4]): 2000 nM

Cc1cc(C2(c3cccc(-c4cccnc4)c3)N=C(N)N(C)C2=O)ccc1OC(F)F (stereo not drawn) [FAH-32]
Sol (solubility (Sol)): Sol: good | Cmax brain ([1]; 10 mg/kg 5Q): <0.02 µM | sAPPα formation ([2]; in words, FIG. 1D): increased sAPPα formation as compared to FAH17 | sAPPβ formation ([2]; in words, FIG. 1D): reduced as compared to FAH17 | Aβ1-42 peptide formation / production ([2]; in words): substantially reduced | preference (selectivity) towards APP in BACE inhibition ([2]; in words): higher selectivity of FAH32 towards APP | IC50 (BACE1; Table 3, read-out: IC50): ~60 nM | IC50 (BACE1; [4]): 70 nM and 50 nM | IC50 (BACE1; [3]): 70 nM

Cc1cc(C2(c3cncnc3)N=C(N)N(C)C2=O)ccc1OC(F)F (stereo not drawn) [FAH-33]
IC50 (BACE1; [4]): 10000 nM | IC50 (BACE1; [3]): 10000 nM

Cc1cc(C2(c3cncc(F)c3)N=C(N)N(C)C2=O)ccc1OC(F)F (stereo not drawn) [FAH-37]
Sol (solubility (Sol)): good | Cmax brain ([1]; (IP), no unit in the cell, neighbours μM): ~0.11 (IP) | IC50 (BACE1; Table 3, read-out: IC50): ~5300 nM | IC50 (BACE1; [3]): 5300 nM | reducing BACE activity in vitro (BACE1; in words, FIG. 2B): less effective

Cc1cc(C2(c3cocn3)N=C(N)N(C)C2=O)ccc1OC(F)F (stereo not drawn) [FAH-38]
Secondary (sAPPalpha, sAPPbeta, sAPP(α/β), Abeta 1-42, sAPPa/Aβ) [2, 5]: unchanged | IC50 (BACE1; [4]): 15300 nM | IC50 (BACE1; [3]): > 10000 nM

Cc1cc(C2(c3cccc(F)c3)N=C(N)N(Cc3ccccc3)C2=O)ccc1OC(F)F (stereo not drawn) [FAH-42]
IC50 (BACE1; [4]): 2300 nM and 2700 nM

COCc1cccc(C2(c3ccc(OC(F)F)c(C)c3)N=C(N)N(C)C2=O)c1 (stereo not drawn) [FAH-44]
Sol (solubility (Sol)): med | Cmax brain ([1]; 10 mg/kg 5Q): ~0.2 µM | sAPPalpha ([2]; Secondary (1st test, n = 3), ↑ = increase): ↑>10% | IC50 (BACE1; Table 3, read-out: IC50): ~25 nM | IC50 (BACE1; [4]): 300 nM and 50 nM | IC50 (BACE1; [3]): 300 nM

Cc1cc(C2(c3ccnc(F)c3)N=C(N)N(C)C2=O)ccc1OC(F)F (stereo not drawn) [FAH-46]
Sol (solubility (Sol)): good | Cmax brain ([1]; 10 mg/kg 5Q): ~0.3 µM | Cmax brain ([1]; 30 mg/kg): 1.3 μM @ 30 mL | IC50 (BACE1; Table 3, read-out: IC50): ~1200 nM | IC50 (BACE1; [4]): 1600 nM | IC50 (BACE1; [3]): 1200 nM

Cc1cc(C2(c3ccc(OC(F)F)c(C)c3)N=C(N)N(C)C2=O)ccn1 (stereo not drawn) [FAH-47]
IC50 (BACE1; [4]): 1400 nM | IC50 (BACE1; [3]): 1400 nM

COc1cc(C2(c3ccc(OC(F)F)c(C)c3)N=C(N)N(C)C2=O)ccn1 (stereo not drawn) [FAH-48]
IC50 (BACE1; [4]): 4800 nM | IC50 (BACE1; [3]): 4800 nM

COCc1cc(C2(c3ccc(OC(F)F)c(C)c3)N=C(N)N(C)C2=O)ccn1 (stereo not drawn) [FAH-53]
IC50 (BACE1; [4]): 1900 nM | IC50 (BACE1; [3]): 2000 nM

CC#Cc1cc(C2(c3ccc(OC(F)F)c(C)c3)N=C(N)N(C)C2=O)ccn1 (stereo not drawn) [FAH-57]
IC50 (BACE1; [4]): 240 nM

Cc1cc(C2(C3CCCCC3)N=C(N)N(C)C2=O)ccc1OC(F)F (stereo not drawn) [FAH-59]
Toxicity in secondary cell assay [2, 5]: Toxic | IC50 (BACE1; [4]): 1500 nM and 750 nM | IC50 (BACE1; [3]): 1500 nM

CNCc1cccc(C2(c3ccc(OC(F)F)c(C)c3)N=C(N)N(C)C2=O)c1 (stereo not drawn) [FAH-62]
Sol (solubility (Sol)): excellent | IC50 (BACE1; Table 3, read-out: IC50): ~60 nM | IC50 (BACE1; [4]): 370 nM | IC50 (BACE1; [3]): 600 nM

Cc1cc(C2(c3cc(-c4cccnc4)ccn3)N=C(N)N(C)C2=O)ccc1OC(F)F (stereo not drawn) [FAH-65]
Aβ1-42 peptide formation / production ([2]; in words): strongly reduces | preference (selectivity) towards APP in BACE inhibition ([2]; in words): clear preference towards APP

Cc1cc(C2(c3cccc(-c4ccccc4)c3)N=C(N)N(C)C2=O)ccc1OC(F)F (stereo not drawn) [FAH-73]
IC50 (BACE1; [4]): 870 nM

CN1C(=O)C(c2ccc(OC(F)F)cc2)(c2cccc(-c3cncnc3)c2)N=C1N (stereo not drawn) [FAH-74]
IC50 (BACE1; [4]): 10 nM | IC50 (BACE1; in vitro BACE inhibition assay, FIG. 8, read-out: IC50): 9 nM

Cc1cc(C2(c3ccncc3)N=C(N)N(C)C2=O)ccc1OC(F)F (stereo not drawn) [FAH-78]
IC50 (BACE1; [4]): 2730 nM

Cc1cc(C2(C3CCNCC3)N=C(N)N(C)C2=O)ccc1OC(F)F (stereo not drawn) [FAH-79]
IC50 (BACE1; [4]): 17600 nM

CCCc1cc(C2(c3ccc(OC(F)F)c(C)c3)N=C(N)N(C)C2=O)ccn1 (stereo not drawn) [FAH-80]
IC50 (BACE1; [4]): 1670 nM

CCCC1CC(C2(c3ccc(OC(F)F)c(C)c3)N=C(N)N(C)C2=O)CCN1 (stereo not drawn) [FAH-81]
IC50 (BACE1; [4]): 14900 nM
